Values quoted from earlier work, collected in article PMC11860437, “Gold Nanoparticles as a Platform for Delivery of Immunogenic Peptides to THP-1 Derived Macrophages: Insights into Nanotoxicity” (Vaccines, 2025).

Assays:
[1] = test system: HeLa, A549, and CHO; settings: three cell lines (HeLa, A549, and CHO)
Text: (§1) The cytotoxicity of p-Au68 was particularly high when conjugated with peptides p2 (~30–50% cell death) and p4 (~40–60% cell death). […] These peptides differ from each other by the presence of the arginine-rich TAT peptide (YGRKKRRQRRR). It is noteworthy that pTAT-functionalized NPs are considered a promising approach to overcome ...

[2] = test system: K562 human erythroleukemia cells
Text: as §1

YGRKKRRQRRR [pTAT]
toxicity [1]: low toxicity | membrane toxicity [2]: completely innocuous
